According to patent US20250171438A1 (Agios Pharmaceuticals, Inc., priority 2022, published 2025):

molecular target: T1, human PAH with the R408W mutation (Homo sapiens, UniProt P00439, R408W); assay: Cell Based Phenylalanine Flux Assay; conditions: A375 cells expressing human R408W PAH; 24 hrs compound incubation; 13C-Tyrosine by LC-MS; average where tested multiple times; read-out: AC50
T1 construct: expressed in transfected cells
T1 sequence (P00439 1-452 R408W): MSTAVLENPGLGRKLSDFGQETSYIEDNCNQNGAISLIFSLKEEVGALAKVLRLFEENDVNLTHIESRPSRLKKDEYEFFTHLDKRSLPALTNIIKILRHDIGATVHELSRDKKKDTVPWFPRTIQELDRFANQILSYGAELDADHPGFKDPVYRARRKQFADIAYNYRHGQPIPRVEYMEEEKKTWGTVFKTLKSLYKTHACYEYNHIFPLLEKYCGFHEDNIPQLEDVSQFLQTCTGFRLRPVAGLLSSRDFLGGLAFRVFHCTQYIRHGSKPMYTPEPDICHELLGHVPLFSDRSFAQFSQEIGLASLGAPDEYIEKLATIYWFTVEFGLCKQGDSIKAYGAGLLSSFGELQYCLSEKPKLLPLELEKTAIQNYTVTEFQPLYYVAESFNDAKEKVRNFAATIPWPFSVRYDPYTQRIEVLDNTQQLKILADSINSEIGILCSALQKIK

Row | Compound | AC50
1 | N#Cc1ccn2ncc(C(=O)N3CCc4[nH]cnc4[C@H]3c3nc4ccccc4s3)c2c1 [Example 1085, (S)-3-(4-(benzo[d]thiazol-2-yl)-4,5,6,7-tetrahydro-1H-imidazo[4,5-c]pyridine-5-carbonyl)pyrazolo[1,5-a]pyridine-5-carbonitrile] | < 500 nM
2 | N#Cc1ccn2ncc(C(=O)N3CCc4[nH]cnc4[C@@H]3c3nc4ccccc4s3)c2c1 [Example 1086, (R)-3-(4-(benzo[d]thiazol-2-yl)-4,5,6,7-tetrahydro-1H-imidazo[4,5-c]pyridine-5-carbonyl)pyrazolo[1,5-a]pyridine-5-carbonitrile] | 1000 to 5000 nM
3 | Cc1ccc2c(C(=O)N3CCc4[nH]cnc4[C@H]3c3nc4ccccc4s3)cnn2c1 [Example 1087] | 500 to 1000 nM
4 | Cc1ccc2c(C(=O)N3CCc4[nH]cnc4[C@@H]3c3nc4ccccc4s3)cnn2c1 [Example 1088, (R)-(4-(benzo[d]thiazol-2-yl)-6,7-dihydro-1H-imidazo[4,5-c]pyridin-5(4H)-yl)(6-methylpyrazolo[1,5-a]pyridin-3-yl)methanone] | > 5000 nM
5 | O=C(CCc1nnc(Br)s1)N1CCc2[nH]cnc2[C@H]1c1nc2ccccc2s1 [Example 1089] | 500 to 1000 nM
6 | O=C(CCc1nnc(Br)s1)N1CCc2[nH]cnc2[C@@H]1c1nc2ccccc2s1 [Example 1090, (R)-1-(4-(benzo[d]thiazol-2-yl)-6,7-dihydro-1H-imidazo[4,5-c]pyridin-5(4H)-yl)-3-(5-bromo-1,3,4-thiadiazol-2-yl)propan-1-one] | > 5000 nM
7 | O=C(c1nc2c(F)cccc2s1)N1CCc2[nH]cnc2[C@@H]1c1nc2ccccc2s1 [Example 1091, (R)-(4-(benzo[d]thiazol-2-yl)-6,7-dihydro-1H-imidazo[4,5-c]pyridin-5(4H)-yl)(4-fluorobenzo[d]thiazol-2-yl)methanone] | > 5000 nM
8 | O=C(c1nc2c(F)cccc2s1)N1CCc2[nH]cnc2[C@H]1c1nc2ccccc2s1 [Example 1092] | 500 to 1000 nM
9 | O=C(CCC1CC1)N1CCc2[nH]cnc2[C@H]1c1nc2ccc(F)cc2s1 [Example 1093, (S)-3-cyclopropyl-1-(4-(6-fluorobenzo[d]thiazol-2-yl)-6,7-dihydro-1H-imidazo[4,5-c]pyridin-5(4H)-yl)propan-1-one] | 500 to 1000 nM
10 | O=C(CCC1CC1)N1CCc2[nH]cnc2[C@@H]1c1nc2ccc(F)cc2s1 [Example 1094, (R)-3-cyclopropyl-1-(4-(6-fluorobenzo[d]thiazol-2-yl)-6,7-dihydro-1H-imidazo[4,5-c]pyridin-5(4H)-yl)propan-1-one] | > 5000 nM
11 | O=C(c1nc2cc(F)ccc2s1)N1CCc2[nH]cnc2[C@H]1c1nc2ccccc2s1 [Example 1095] | 500 to 1000 nM
12 | O=C(c1nc2cc(F)ccc2s1)N1CCc2[nH]cnc2[C@@H]1c1nc2ccccc2s1 [Example 1096, (R)-(4-(benzo[d]thiazol-2-yl)-6,7-dihydro-1H-imidazo[4,5-c]pyridin-5(4H)-yl)(5-fluorobenzo[d]thiazol-2-yl)methanone] | > 5000 nM
13 | O=C(c1cnco1)N1CCc2[nH]cnc2[C@H]1c1nc2ccccc2s1 [Example 1097] | 500 to 1000 nM
14 | O=C(c1cnco1)N1CCc2[nH]cnc2[C@@H]1c1nc2ccccc2s1 [Example 1098, (R)-(4-(benzo[d]thiazol-2-yl)-6,7-dihydro-1H-imidazo[4,5-c]pyridin-5(4H)-yl)(oxazol-5-yl)methanone] | > 5000 nM
15 | O=C(c1cnn2ccccc12)N1CCc2[nH]cnc2[C@H]1c1nc2ccc(F)cc2s1 [Example 1099, (S)-(4-(6-fluorobenzo[d]thiazol-2-yl)-6,7-dihydro-1H-imidazo[4,5-c]pyridin-5(4H)-yl)(pyrazolo[1,5-a]pyridin-3-yl)methanone] | 1000 to 5000 nM
16 | O=C(c1cnn2ccccc12)N1CCc2[nH]cnc2[C@@H]1c1nc2ccc(F)cc2s1 [Example 1100, (R)-(4-(6-fluorobenzo[d]thiazol-2-yl)-6,7-dihydro-1H-imidazo[4,5-c]pyridin-5(4H)-yl)(pyrazolo[1,5-a]pyridin-3-yl)methanone] | > 5000 nM
17 | O=C(c1nccs1)N1CCc2[nH]cnc2[C@H]1c1nc2cccc(F)c2s1 [Example 1101, (S)-(4-(7-fluorobenzo[d]thiazol-2-yl)-6,7-dihydro-1H-imidazo[4,5-c]pyridin-5(4H)-yl)(thiazol-2-yl)methanone] | 500 to 1000 nM
18 | O=C(c1nccs1)N1CCc2[nH]cnc2[C@@H]1c1nc2cccc(F)c2s1 [Example 1102, (R)-(4-(7-fluorobenzo[d]thiazol-2-yl)-6,7-dihydro-1H-imidazo[4,5-c]pyridin-5(4H)-yl)(thiazol-2-yl)methanone] | 1000 to 5000 nM

Row | Compound | AC50
19 | O=C(c1cnn2ccc(F)cc12)N1CCc2[nH]cnc2[C@H]1c1nc2ccccc2s1 [Example 1103] | 500 to 1000 nM
20 | O=C(c1cnn2ccc(F)cc12)N1CCc2[nH]cnc2[C@@H]1c1nc2ccccc2s1 [Example 1104, (R)-(4-(benzo[d]thiazol-2-yl)-6,7-dihydro-1H-imidazo[4,5-c]pyridin-5(4H)-yl)(5-fluoropyrazolo[1,5-a]pyridin-3-yl)methanone] | 1000 to 5000 nM
21 | O=C(c1ncn2ccccc12)N1CCc2[nH]cnc2[C@H]1c1nc2cc(F)ccc2s1 [Example 1105, (S)-(4-(5-fluorobenzo[d]thiazol-2-yl)-6,7-dihydro-1H-imidazo[4,5-c]pyridin-5(4H)-yl)(imidazo[1,5-a]pyridin-1-yl)methanone] | 500 to 1000 nM
22 | O=C(c1ncn2ccccc12)N1CCc2[nH]cnc2[C@@H]1c1nc2cc(F)ccc2s1 [Example 1106, (R)-(4-(5-fluorobenzo[d]thiazol-2-yl)-6,7-dihydro-1H-imidazo[4,5-c]pyridin-5(4H)-yl)(imidazo[1,5-a]pyridin-1-yl)methanone] | 1000 to 5000 nM
23 | O=C(c1cnn2ccc(Cl)cc12)N1CCc2[nH]cnc2[C@H]1c1nc2ccccc2s1 [Example 1107] | < 500 nM
24 | O=C(c1cnn2ccc(Cl)cc12)N1CCc2[nH]cnc2[C@@H]1c1nc2ccccc2s1 [Example 1108, (R)-(4-(benzo[d]thiazol-2-yl)-6,7-dihydro-1H-imidazo[4,5-c]pyridin-5(4H)-yl)(5-chloropyrazolo[1,5-a]pyridin-3-yl)methanone] | 1000 to 5000 nM
25 | O=C(c1cnn2ccccc12)N1CCc2[nH]cnc2[C@H]1c1nc2cccc(F)c2s1 [Example 1109, (S)-(4-(7-fluorobenzo[d]thiazol-2-yl)-6,7-dihydro-1H-imidazo[4,5-c]pyridin-5(4H)-yl)(pyrazolo[1,5-a]pyridin-3-yl)methanone] | 500 to 1000 nM
26 | O=C(c1cnn2ccccc12)N1CCc2[nH]cnc2[C@@H]1c1nc2cccc(F)c2s1 [Example 1110, (R)-(4-(7-fluorobenzo[d]thiazol-2-yl)-6,7-dihydro-1H-imidazo[4,5-c]pyridin-5(4H)-yl)(pyrazolo[1,5-a]pyridin-3-yl)methanone] | 500 to 1000 nM
27 | O=C(c1cnn2ccccc12)N1CCc2nc[nH]c2[C@H]1c1nc2c(F)cccc2s1 [Example 1111, (S)-(4-(4-fluorobenzo[d]thiazol-2-yl)-6,7-dihydro-3H-imidazo[4,5-c]pyridin-5(4H)-yl)(pyrazolo[1,5-a]pyridin-3-yl)methanone] | 500 to 1000 nM
28 | O=C(c1cnn2ccccc12)N1CCc2nc[nH]c2[C@@H]1c1nc2c(F)cccc2s1 [Example 1112, (R)-(4-(4-fluorobenzo[d]thiazol-2-yl)-6,7-dihydro-3H-imidazo[4,5-c]pyridin-5(4H)-yl)(pyrazolo[1,5-a]pyridin-3-yl)methanone] | 1000 to 5000 nM
29 | O=C(CCC1CC1)N1CCc2nc[nH]c2[C@H]1c1nc2c(F)cccc2s1 [Example 1113, (S)-3-cyclopropyl-1-(4-(4-fluorobenzo[d]thiazol-2-yl)-6,7-dihydro-3H-imidazo[4,5-c]pyridin-5(4H)-yl)propan-1-one] | 1000 to 5000 nM
30 | O=C(CCC1CC1)N1CCc2nc[nH]c2[C@@H]1c1nc2c(F)cccc2s1 [Example 1114, (R)-3-cyclopropyl-1-(4-(4-fluorobenzo[d]thiazol-2-yl)-6,7-dihydro-3H-imidazo[4,5-c]pyridin-5(4H)-yl)propan-1-one] | > 5000 nM
31 | CCc1nnc(CCC(=O)N2CCc3[nH]cnc3[C@H]2c2nc3ccccc3s2)s1 [Example 1115] | 500 to 1000 nM
32 | CCc1nnc(CCC(=O)N2CCc3[nH]cnc3[C@@H]2c2nc3ccccc3s2)s1 [Example 1116, (R)-1-(4-(benzo[d]thiazol-2-yl)-6,7-dihydro-1H-imidazo[4,5-c]pyridin-5(4H)-yl)-3-(5-ethyl-1,3,4-thiadiazol-2-yl)propan-1-one] | > 5000 nM
33 | O=C(CC1CC1)N1CCc2[nH]cnc2[C@H]1c1nc2ccc(F)cc2s1 [Example 1117, (S)-2-cyclopropyl-1-(4-(6-fluorobenzo[d]thiazol-2-yl)-6,7-dihydro-1H-imidazo[4,5-c]pyridin-5(4H)-yl)ethanone] | < 500 nM
34 | O=C(CC1CC1)N1CCc2[nH]cnc2[C@@H]1c1nc2ccc(F)cc2s1 [Example 1118, (R)-2-cyclopropyl-1-(4-(6-fluorobenzo[d]thiazol-2-yl)-6,7-dihydro-1H-imidazo[4,5-c]pyridin-5(4H)-yl)ethanone] | > 5000 nM
35 | O=C(c1nccs1)N1CCc2nc[nH]c2[C@@H]1c1nc2c(F)cccc2s1 [Example 1119, (R)-(4-(4-fluorobenzo[d]thiazol-2-yl)-6,7-dihydro-3H-imidazo[4,5-c]pyridin-5(4H)-yl)(thiazol-2-yl)methanone] | 1000 to 5000 nM
